Results from PubChem BioAssay (NCI).
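Growth conditions: 96-well plates. Treatment: test compound, 48 hours, 5 concentrations. Analysis: linear interpolation between bracketing concentrations; unreached endpoints set to highest concentration. GI50 = concentration required for 50% inhibition of growth. Definition used: TGI = concentration required for complete inhibition of growth.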 Where a SMILES comes first, the peptide text is derived from it. [ ]: non-standard residue; d: D form.

What was measured:
Assay in all cases: NCI-60 cell line screen, 48 h
[1] = test system: SW-620 colon
[2] = test system: RXF 393 renal
[3] = test system: HS 578T breast
[4] = test system: CAKI-1 renal
[5] = test system: SN12C renal
[6] = test system: KM12 colon
[7] = test system: HCT-116 colon
[8] = test system: DU-145 prostate
[9] = test system: U251 CNS
[10] = test system: MCF7 breast
[11] = test system: SF-268 CNS
[12] = test system: NCI-H23 lung
[13] = test system: OVCAR-3 ovarian
[14] = test system: NCI-H226 lung
[15] = test system: UO-31 renal
[16] = test system: M14 melanoma
[17] = test system: OVCAR-8 ovarian
[18] = test system: BT-549 breast
[19] = test system: A498 renal
[20] = test system: SF-295 CNS
[21] = test system: MOLT-4 leukemia
[22] = test system: SF-539 CNS
[23] = test system: NCI-H460 lung
[24] = test system: HCT-15 colon
[25] = test system: EKVX NSCLC
[26] = test system: SK-OV-3 ovarian
[27] = test system: HL-60(TB) leukemia
[28] = test system: MDA-MB-435
[29] = test system: NCI-H522 lung
[30] = test system: 786-0 renal
[31] = test system: IGROV1 ovarian
[32] = test system: COLO 205 colon
[33] = test system: SK-MEL-5 melanoma
[34] = test system: HT29 colon
[35] = test system: LOX IMVI melanoma
[36] = test system: HCC-2998 colon
[37] = test system: MDA-MB-231 breast
[38] = test system: CCRF-CEM leukemia
[39] = test system: NCI/ADR-RES ovarian
[40] = test system: SR leukemia
[41] = test system: T-47D breast
[42] = test system: OVCAR-4 ovarian
[43] = test system: HOP-62 NSCLC
[44] = test system: PC-3 prostate
[45] = test system: HOP-92 NSCLC
[46] = test system: SK-MEL-2 melanoma
[47] = test system: OVCAR-5 ovarian
[48] = test system: UACC-257 melanoma
[49] = test system: UACC-62 melanoma
[50] = test system: TK-10 renal
[51] = test system: SNB-19 CNS
[52] = test system: K-562 leukemia
[53] = test system: A549 NSCLC
[54] = test system: ACHN renal
[55] = test system: RPMI-8226 leukemia
[56] = test system: SK-MEL-28 melanoma
[57] = test system: MALME-3M melanoma
[58] = test system: SNB-75 CNS

NC(N)=NCCC[C@H]1NC(=O)[C@@H](CCC(=O)O)NC(=O)[C@@H](CC(=O)O)NC(=O)[C@@H](CCC(=O)O)NC(=O)[C@H](Cc2c[nH]c3ccccc23)NC1=O (cyclo(W[dE][dD][dE][dR]))
TGI [1]: > 7.5 µM | TGI [2]: > 7.5 µM | TGI [3]: > 7.5 µM | TGI [4]: > 7.5 µM | TGI [5]: > 7.5 µM | TGI [6]: > 7.5 µM | TGI [7]: > 7.5 µM | TGI [8]: > 7.5 µM | TGI [9]: > 7.5 µM | TGI [10]: > 7.5 µM | TGI [11]: > 7.5 µM | TGI [12]: > 7.5 µM | TGI [13]: > 7.5 µM | TGI [14]: > 7.5 µM | TGI [15]: > 7.5 µM | TGI [16]: > 7.5 µM | TGI [17]: > 7.5 µM | TGI [18]: > 7.5 µM | TGI [19]: > 7.5 µM | TGI [20]: > 7.5 µM | TGI [21]: > 7.5 µM | TGI [22]: > 7.5 µM | TGI [23]: > 7.5 µM | TGI [24]: > 7.5 µM | TGI [25]: > 7.5 µM | TGI [26]: > 7.5 µM | TGI [27]: > 7.5 µM | TGI [28]: > 7.5 µM | TGI [29]: > 7.5 µM | TGI [30]: > 7.5 µM | TGI [31]: > 7.5 µM | TGI [32]: > 7.5 µM | TGI [33]: > 7.5 µM | TGI [34]: > 7.5 µM | TGI [35]: > 7.5 µM | TGI [36]: > 7.5 µM | TGI [37]: > 7.5 µM | TGI [38]: > 7.5 µM | TGI [39]: > 7.5 µM | TGI [40]: > 7.5 µM | TGI [41]: > 7.5 µM | TGI [42]: > 7.5 µM | TGI [43]: > 7.5 µM | TGI [44]: > 7.5 µM | TGI [45]: > 7.5 µM | TGI [46]: 0.507 µM | TGI [47]: > 7.5 µM | TGI [48]: > 7.5 µM | TGI [49]: > 7.5 µM | TGI [50]: > 7.5 µM | TGI [51]: > 7.5 µM | TGI [52]: > 7.5 µM | TGI [53]: > 7.5 µM | TGI [54]: > 7.5 µM | TGI [55]: > 7.5 µM

ClCc1ccccc1Cn1cnc2c(Cl)nc(Cl)nc21
GI50 [1]: < 0.0392 µM | TGI [1]: 0.0647 µM | GI50 [2]: 1.46 µM | TGI [2]: 3.01 µM | GI50 [3]: 1.19 µM | TGI [3]: 3.55 µM | GI50 [4]: 0.728 µM | TGI [4]: 1.59 µM | GI50 [5]: 0.362 µM | TGI [5]: 1.02 µM | GI50 [6]: 1.48 µM | TGI [6]: 2.95 µM | GI50 [56]: 0.942 µM | TGI [56]: 2.48 µM | GI50 [7]: 0.0605 µM | TGI [7]: 0.188 µM | GI50 [8]: 0.207 µM | TGI [8]: 0.743 µM | GI50 [9]: 0.222 µM | TGI [9]: 0.602 µM | GI50 [10]: 0.118 µM | TGI [10]: > 100 µM | GI50 [11]: 0.115 µM | TGI [11]: 0.556 µM | GI50 [12]: 0.485 µM | TGI [12]: 1.02 µM | GI50 [13]: 0.547 µM | TGI [13]: 1.17 µM | GI50 [14]: 0.603 µM | TGI [14]: 1.59 µM | GI50 [15]: 0.379 µM | TGI [15]: 1.44 µM | GI50 [16]: 0.453 µM | TGI [16]: 1.07 µM | GI50 [17]: 1.44 µM | TGI [17]: 2.98 µM | GI50 [18]: 0.46 µM | TGI [18]: 1.5 µM | GI50 [19]: 2.05 µM | TGI [19]: 4 µM | GI50 [20]: 1.58 µM | TGI [20]: 3.11 µM | GI50 [21]: 0.574 µM | TGI [21]: 1.59 µM | GI50 [22]: 0.17 µM | TGI [22]: 0.467 µM | GI50 [23]: 2.29 µM | TGI [23]: 7.15 µM | TGI [24]: 0.139 µM | GI50 [25]: 0.332 µM | TGI [25]: 0.811 µM | GI50 [26]: 1.95 µM | TGI [26]: 3.7 µM | GI50 [27]: 0.181 µM | TGI [27]: 1.35 µM | GI50 [28]: 1.64 µM | TGI [28]: 3.27 µM | GI50 [29]: 0.964 µM | TGI [29]: 2.6 µM | GI50 [30]: 0.167 µM | TGI [30]: 0.634 µM | GI50 [31]: 0.996 µM | TGI [31]: 2.53 µM | GI50 [32]: 0.163 µM | TGI [32]: 0.362 µM | GI50 [33]: 0.104 µM | TGI [33]: 0.501 µM | GI50 [35]: < 0.0395 µM | TGI [35]: 0.169 µM | GI50 [57]: 1.22 µM | TGI [57]: 3.59 µM | GI50 [36]: 0.315 µM | TGI [36]: 1.32 µM | TGI [37]: 0.295 µM | GI50 [38]: 0.0313 µM | TGI [38]: 0.0939 µM | GI50 [39]: 0.552 µM | TGI [39]: 1.33 µM | GI50 [40]: 1.77 µM | TGI [40]: 4.93 µM | GI50 [41]: 1.99 µM | TGI [41]: 5.46 µM | GI50 [42]: 1.03 µM | TGI [42]: 2.55 µM | GI50 [43]: 1.38 µM | TGI [43]: 2.78 µM | GI50 [44]: 0.425 µM | TGI [44]: 1.61 µM | GI50 [46]: 2.25 µM | TGI [46]: 4.72 µM | GI50 [47]: 0.471 µM | TGI [47]: 1.21 µM | GI50 [48]: 1.9 µM | TGI [48]: 4 µM | GI50 [58]: 0.892 µM | TGI [58]: 2.14 µM | GI50 [49]: 0.408 µM | TGI [49]: 0.865 µM | GI50 [50]: 1.02 µM | TGI [50]: 2.49 µM | GI50 [51]: 1.04 µM | TGI [51]: 2.24 µM | GI50 [52]: 0.189 µM | TGI [52]: 1.94 µM | GI50 [53]: 2.82 µM | TGI [53]: 8.8 µM | GI50 [54]: 0.0785 µM | TGI [54]: 0.316 µM | GI50 [55]: 0.139 µM | TGI [55]: 0.501 µM
